According to PubChem BioAssay AID1963451 (Molecular Pharmacology Branch, DTP, NCI, 2024):
pIC50: −log10 of the molar value.

Tested on: 521955-158-R6-J3-PDC complex spheroid growth, % test/control
Assay: Anticancer human tumor 521955-158-R6-J3-PDC patient-derived pancreatic carcinoma cell line growth inhibition [Asc]
Conditions: for pIC50: curve of first compound; for viability, T/C: stronger effect = lower value
Procedure, shortened: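 Complex spheroids combining tumor cells with HUVEC endothelial cells and human MSCs, at 37 degrees C, 5% CO2; agents tested alone or combined, half-log dilutions from at or near clinical Cmax, or 10 microM if Cmax unknown.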
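Further: spheroids exposed to compounds for 7 days.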
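Wherever viability, T/C is given: 100% = DMSO vehicle control wells.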

NC(=O)C(=Cn1cnc(-c2cc(C(F)(F)F)cc(C(F)(F)F)c2)n1)c1cncnc1 + CCN1C(C(=O)NC23CCC(C(=O)O)(CC2)CC3)C(c2cccc(Cl)c2F)C2(C(=O)Nc3cc(Cl)ccc32)C12CCCCC2
pIC50 (second compound 0.00949 µM): < 6.52 | pIC50 (second compound 0.03 µM): < 6.52 | pIC50 (second compound 0.0949 µM): < 6.52 | pIC50 (second compound 0.3 µM): < 6.52 | pIC50 (second compound 0.949 µM): < 6.52 | pIC50 (second compound 3 µM): < 6.52 | viability, T/C (second compound 0.00949 µM, first compound 0.000949 µM): 99.6% | viability, T/C (second compound 0.00949 µM, first compound 0.003 µM): 86.8% | viability, T/C (second compound 0.00949 µM, first compound 0.00949 µM): 77.3% | viability, T/C (second compound 0.00949 µM, first compound 0.03 µM): 99% | viability, T/C (second compound 0.00949 µM, first compound 0.0949 µM): 82.9% | viability, T/C (second compound 0.00949 µM, first compound 0.3 µM): 93.2% | viability, T/C (second compound 0.03 µM, first compound 0.000949 µM): 93.7% | viability, T/C (second compound 0.03 µM, first compound 0.003 µM): 83.7% | viability, T/C (second compound 0.03 µM, first compound 0.00949 µM): 69.6% | viability, T/C (second compound 0.03 µM, first compound 0.03 µM): 86% | viability, T/C (second compound 0.03 µM, first compound 0.0949 µM): 103% | viability, T/C (second compound 0.03 µM, first compound 0.3 µM): 102% | viability, T/C (second compound 0.0949 µM, first compound 0.000949 µM): 88.8% | viability, T/C (second compound 0.0949 µM, first compound 0.003 µM): 87.3% | viability, T/C (second compound 0.0949 µM, first compound 0.00949 µM): 78.1% | viability, T/C (second compound 0.0949 µM, first compound 0.03 µM): 85.1% | viability, T/C (second compound 0.0949 µM, first compound 0.0949 µM): 98.8% | viability, T/C (second compound 0.0949 µM, first compound 0.3 µM): 113% | viability, T/C (second compound 0.3 µM, first compound 0.000949 µM): 88.7% | viability, T/C (second compound 0.3 µM, first compound 0.003 µM): 76.9% | viability, T/C (second compound 0.3 µM, first compound 0.00949 µM): 85.8% | viability, T/C (second compound 0.3 µM, first compound 0.03 µM): 82.2% | viability, T/C (second compound 0.3 µM, first compound 0.0949 µM): 117% | viability, T/C (second compound 0.3 µM, first compound 0.3 µM): 107% | viability, T/C (second compound 0.949 µM, first compound 0.000949 µM): 94% | viability, T/C (second compound 0.949 µM, first compound 0.003 µM): 78.3% | viability, T/C (second compound 0.949 µM, first compound 0.00949 µM): 95.1% | viability, T/C (second compound 0.949 µM, first compound 0.03 µM): 78.7% | viability, T/C (second compound 0.949 µM, first compound 0.0949 µM): 105% | viability, T/C (second compound 0.949 µM, first compound 0.3 µM): 98.1% | viability, T/C (second compound 3 µM, first compound 0.000949 µM): 87.2% | viability, T/C (second compound 3 µM, first compound 0.003 µM): 97.7% | viability, T/C (second compound 3 µM, first compound 0.00949 µM): 69.6% | viability, T/C (second compound 3 µM, first compound 0.03 µM): 75.7% | viability, T/C (second compound 3 µM, first compound 0.0949 µM): 99.8% | viability, T/C (second compound 3 µM, first compound 0.3 µM): 84.4%

Cc1nc(N2CCC3(CC2)COC(C)C3N)c(CO)nc1Sc1ccnc(N)c1Cl (centres undefined) + Cc1c(S(C)(=O)=O)c(-c2cc(F)cc(N3CCN(c4ccc(NS(=O)(=O)c5ccc(NC(CCN6CCC(C(=O)OCCCP(=O)(O)O)CC6)CSc6ccccc6)c(S(=O)(=O)C(F)(F)F)c5)cc4)CC3)c2)c(-c2ccc(Cl)cc2)n1C(C)C
pIC50 (second compound 0.0316 µM): < 5.52 | pIC50 (second compound 0.1 µM): 6.75 | pIC50 (second compound 0.316 µM): > 8.02 | pIC50 (second compound 1 µM): > 8.02 | pIC50 (second compound 3.16 µM): > 8.02 | pIC50 (second compound 10 µM): > 8.02 | viability, T/C (second compound 0.0316 µM, first compound 0.00949 µM): 81.8% | viability, T/C (second compound 0.0316 µM, first compound 0.03 µM): 75% | viability, T/C (second compound 0.0316 µM, first compound 0.0949 µM): 57.6% | viability, T/C (second compound 0.0316 µM, first compound 0.3 µM): 61.2% | viability, T/C (second compound 0.0316 µM, first compound 0.949 µM): 58.6% | viability, T/C (second compound 0.0316 µM, first compound 3 µM): 51.7% | viability, T/C (second compound 0.1 µM, first compound 0.00949 µM): 77.4% | viability, T/C (second compound 0.1 µM, first compound 0.03 µM): 63.2% | viability, T/C (second compound 0.1 µM, first compound 0.0949 µM): 49.1% | viability, T/C (second compound 0.1 µM, first compound 0.3 µM): 54.4% | viability, T/C (second compound 0.1 µM, first compound 0.949 µM): 39.6% | viability, T/C (second compound 0.1 µM, first compound 3 µM): 39.9% | viability, T/C (second compound 0.316 µM, first compound 0.00949 µM): 42.6% | viability, T/C (second compound 0.316 µM, first compound 0.03 µM): 38.7% | viability, T/C (second compound 0.316 µM, first compound 0.0949 µM): 41.9% | viability, T/C (second compound 0.316 µM, first compound 0.3 µM): 29% | viability, T/C (second compound 0.316 µM, first compound 0.949 µM): 31.1% | viability, T/C (second compound 0.316 µM, first compound 3 µM): 22.3% | viability, T/C (second compound 1 µM, first compound 0.00949 µM): 26.3% | viability, T/C (second compound 1 µM, first compound 0.03 µM): 24.8% | viability, T/C (second compound 1 µM, first compound 0.0949 µM): 22.8% | viability, T/C (second compound 1 µM, first compound 0.3 µM): 26% | viability, T/C (second compound 1 µM, first compound 0.949 µM): 15.5% | viability, T/C (second compound 1 µM, first compound 3 µM): 14.1% | viability, T/C (second compound 3.16 µM, first compound 0.00949 µM): 16.7% | viability, T/C (second compound 3.16 µM, first compound 0.03 µM): 19.9% | viability, T/C (second compound 3.16 µM, first compound 0.0949 µM): 12.2% | viability, T/C (second compound 3.16 µM, first compound 0.3 µM): 12.5% | viability, T/C (second compound 3.16 µM, first compound 0.949 µM): 11.6% | viability, T/C (second compound 3.16 µM, first compound 3 µM): 8.25% | viability, T/C (second compound 10 µM, first compound 0.00949 µM): 12.8% | viability, T/C (second compound 10 µM, first compound 0.03 µM): 11.4% | viability, T/C (second compound 10 µM, first compound 0.0949 µM): 12.7% | viability, T/C (second compound 10 µM, first compound 0.3 µM): 7.14% | viability, T/C (second compound 10 µM, first compound 0.949 µM): 8.9% | viability, T/C (second compound 10 µM, first compound 3 µM): 8.72%
